{"source": "patent US8106024B2", "about": "“Method of treating cancer with an RPN2 gene expression inhibitor” (Taisho Pharmaceutical Co., Ltd., priority 2006, dated 2012)", "key": {"[1]": {"system": "PC-9/CDDP cell", "test": "Caspase activity in cisplatin-resistant lung cancer cells", "type": "cell-based, human", "conditions": "3 days", "protocol": "(§1) A reagent for measurement of apoptosis was added to the plate after the measurement of the luciferase activity in Test Example 1, and the Caspase activity was measured. […] The Caspase activation rate was calculated with the control siRNA as 0%.\nTo suppress RPN2 gene expression RPN2 siRNA was transduced into PC-9/CDDP cell which is a cell line of human lung cancer ([…], differentiated gland cancer), and resistant to cisplatin (Cis) that is a anti-cancer drug. Then, the cell was cultured for 3 days in the presence of or in the absence of cisplatin (0.3 μM). Then, Caspase activity was measured in the same way as described in Test Example 2. In addition, for comparison, the same test was conducted also for the system to which control siRNA not suppressing any gene expression was introduced."}, "[2]": {"system": "Luciferase gene (GL3)", "test": "siRNA introduction efficiency (suppression of luciferase activity)", "type": "cell-based", "conditions": "MCF7-ADR-Luc, atelocollagen transfection array", "protocol": "Luciferase gene (GL3) was stably transfected into multidrug-resistant MCF7-ADR cells of which the parental Cell line is MCF7 breast cancer cell. The cell line was expressing luciferase and designated as MCF7-ADR-Luc.\nThe MCF7-ADR-LUC cell obtained in (2) was inoculated into the array prepared in (1) in 4×10^3 cell number/well, and cultured for 3 days in the presence of 1 nM docetaxel (DOC). To the live cells were added luciferin, and from the luminescence value, cell growth inhibition rate and luciferase siRNA introduction efficiency were measured.\nMoreover, siRNA introduction efficiency was evaluated with the suppression rate of the luciferase activity by introduction of luciferase siRNA (GL3siRNA: dsRNA including a sense chain of Sequence No. 7 and an antisense chain of Sequence No. 8), separately from siRNA corresponding to each gene. In addition, luciferin (0.5 mM final concentration: Promega KK) was added to the medium, and the luciferase activity was measured immediately by a luminescence plate reader (ARVO: PerkinElmer, Inc.). Introduction of GL3 siRNA suppressed the luciferase activity by 80% in comparison with the control siRNA."}, "[3]": {"system": "MCF7-ADR-Luc cells", "test": "Apoptosis induction test, Caspase-3/7 activity", "type": "cell-based", "conditions": "3 days", "protocol": "as §1\nAfter 3 days, Caspase activity was measured in the same way as described in Test Example 2."}, "[4]": {"system": "MCF7-ADR-Luc cells", "test": "Apoptosis induction test, Hoechst staining", "type": "cell-based", "conditions": "vs control siRNA", "protocol": "Moreover, in addition to the Caspase activity, apoptosis induction was investigated with observation by Hoechst staining (the cells were washed with PBS (−), added with 4% PFA-0.1% Triton X-100-1 mg/ml Hoechst 33342/in PBS (−), and fixed and stained at room temperature for 20 minutes. The cells were washed with PBS (−), and then observed under fluorescence microscope.)."}, "[5]": {"system": "RPN2 gene", "test": "RPN2 gene expression suppression test (real-time PCR)", "type": "cell-based", "conditions": "MCF7-ADR-Luc, 3 days, atelocollagen transfection array; remaining expression", "protocol": "Into the atelocollagen cell transfection array prepared in Test Example 1 (1) were inoculated MCF7-ADR-Luc cells. After 3 days, cDNA was synthesized directly from the cell lysate, and real-time PCR was conducted, to investigate the RPN2 gene expression amount (SuperScript III Platinum CellsDirect Two-Step qRT-PCR: Invitrogen)."}, "[6]": {"system": "MCF7-ADR-Luc cells", "test": "Tumor growth test in a nude mouse", "type": "in vivo", "conditions": "1 nmol siRNA/atelocollagen per tumor intratumoral + 20 mg/kg docetaxel i.p., 7 days after dosing, vs control siRNA", "protocol": "According to the protocol shown in FIG. 6, 1×10^7 MCF7-ADR-Luc cells suspended in 100 μl PBS (−) were transplanted into the mammary fat pad of the nude mouse (4 weeks old, scalpel). After 7 days when the tumor radius reached about 5 mm, siRNA and DOC were administered. Herein, atelocollagen in the final concentration of 5 mg/ml (w/vol) and siRNA in 1 nmol per tumor were mixed, and then 200 μl of atelocollagen (manufactured by KOKEN CO., LTD.)/siRNA was administered into the tumor. At the same time, 20 mg/kg of docetaxel was administered into the abdominal cavity. After 7 days, the tumor radius was measured to compare the tumor volumes."}, "[7]": {"system": "RPN2 gene", "test": "RPN2 gene expression suppression test in a nude mouse (real-time RT-PCR of tumor)", "type": "in vivo", "conditions": "1 nmol siRNA/atelocollagen per tumor + 20 mg/kg docetaxel, tumor collected after 1 day", "protocol": "1×10^7 MCF7-ADR-Luc cells suspended in 100 μl PBS (−) were transplanted into the mammary fat pad of the nude mouse (4 weeks old, scalpel). After 7 days, RPN2 siRNA and DOC were administered. Herein, atelocollagen in the final concentration of 5 mg/ml (w/vol) and RPN2 siRNA in 1 nmol per tumor were mixed, and then 200 μl of atelocollagen/siRNA was administered into the tumor. At the same time, 20 mg/kg of docetaxel was administered into the abdominal cavity. After 1 day, the tumor was collected and the total RNA was isolated, and RPN2 gene expression amount was measured with real-time RT-PCR (SYBR ExScript RT-PCR Kit: TaKaRa, LightCycler Real-Time PCR System: F. Hoffmann-La Roche Ltd.).\nThe RPN2 gene expression amount was measured in the same method as Test Example 5 except that RPN2 siRNA and DOC were administered at 6 weeks after MCF7-ADR-Luc cells were transplanted into the mammary fat pad of the nude mouse (4 weeks old, scalpel)."}, "[8]": {"system": "MCF7-ADR-Luc cells", "test": "Apoptosis induction test in a nude mouse (TUNEL staining)", "type": "in vivo", "conditions": "dosed 6 weeks after transplant; siRNA/atelocollagen intratumoral + 20 mg/kg docetaxel; tumor collected after 4 days", "protocol": "1×10^7 MCF7-ADR-Luc cells suspended in 100 μl PBS (−) were transplanted into the mammary fat pad of the nude mouse (4 weeks old, scalpel). After 6 weeks, siRNA and DOC, or siRNA alone was administered. Atelocollagen in the final concentration of 5 mg/ml (w/vol) and siRNA in 1 nmol per tumor were mixed, and then 200 μl of atelocollagen/siRNA was administered into the tumor. At the same time, 20 mg/kg of docetaxel was administered into the abdominal cavity. After 4 days, the tumor was collected, and subjected to TUNEL staining (In Situ Cell Death Detection Kit: F. Hoffmann-La Roche Ltd.). The nucleus was subjected to counter staining with DAPI (4′,6-diamidino-2-phenylindole)."}, "[9]": {"system": "HepG2", "test": "Cell survival in human liver cancer cells (CellTiter-Glo)", "type": "cell-based", "protocol": "HepG2, which is a cell line of human liver cancer, was inoculated into a 96 well plate in 5000/well. […] The control siRNA (dsRNA including a sense chain of Sequence No. 5 and an antisense chain of Sequence No. 6) was introduced as the negative control. At the same time with the siRNA, DOC was added in 1 nM of the final concentration. After the culture for 3 days, in order to determine the cell survival rate in each well, a quantification reagent for the live cells (CellTiter-Glo substrate: Promega KK) was added to each well, and the plate was stirred for 2 minutes, and left for 10 minutes. The luminescence was measured by a luminescence plate reader (ARVO: PerkinElmer)."}}}
{"compound": "N.N.[Cl][Pt][Cl]", "note": "[cisplatin, reference compound]", "values": [{"measurement": "Caspase activity, Cis+ versus Cis−", "setting": "[1]; control siRNA system, cisplatin 0.3 μM", "result": "no difference"}]}
{"compound": "GL3 siRNA: luciferase siRNA: dsRNA including a sense chain of Sequence No. 7 and an antisense chain of Sequence No. 8 (sense CUUACGCUGAGUACUUCGANN; antisense UCGAAGUACUCAGCGUAAGNN; chemistry not given here; listed as Homo sapiens)", "values": [{"measurement": "suppression of luciferase activity in comparison with the control siRNA", "setting": "[2]", "result": 80, "unit": "%"}]}
{"compound": "RPN2 siRNA: dsRNA including a sense chain of Sequence No. 3 and an antisense chain of Sequence No. 4 (sense GGCCACUGUUAAACUAGAACA; antisense UUCUAGUUUAACAGUGGCCUG; listed as RNA, chemistry not given here; listed as Homo sapiens)", "values": [{"measurement": "Caspase activity", "setting": "[3]; 1 nM docetaxel, vs control siRNA", "result": "induced strongly"}, {"measurement": "Caspase activity (apoptosis)", "setting": "[3]; in the absence of DOC", "result": "apoptosis is induced"}, {"measurement": "nucleus morphology by Hoechst staining (aggregation, fragmentation)", "setting": "[4]", "result": "apoptosis is induced"}, {"measurement": "RPN2 gene expression suppressed to", "setting": "[5]", "result": "about 25%"}, {"measurement": "tumor volume", "setting": "[6]", "result": "significant tumor shrinkage"}, {"measurement": "RPN2 gene expression suppressed by, in comparison with control siRNA group", "setting": "[7]; dosed 6 weeks after transplant", "result": "about 40%"}, {"measurement": "RPN2 gene expression suppressed by, in comparison with control siRNA group", "setting": "[7]; dosed 7 days after transplant", "result": "about 20%"}, {"measurement": "apoptosis cells in tumor (TUNEL staining)", "setting": "[8]", "result": "many apoptosis cells were found"}, {"measurement": "Caspase activity (apoptosis)", "setting": "[1]; cisplatin-treated (0.3 μM, Cis+)", "result": "significant apoptosis was induced"}, {"measurement": "Caspase activity (apoptosis increase)", "setting": "[1]; cisplatin-untreated (Cis−)", "result": "slight"}, {"measurement": "cancer cell growth suppression (luminescence intensity, RLU)", "setting": "[9]; HepG2, siRNA alone, Lipofectamine 2000, 3 days", "result": "showed cancer cell growth suppression effects alone"}, {"measurement": "cancer cell growth suppression (luminescence intensity, RLU)", "setting": "[9]; HepG2, siRNA with 1 nM DOC, 3 days", "result": "potentiating the cancer cell growth suppression effects of DOC"}]}
